Test results taken from publication PMC7247425, “MRP1-Collateral Sensitizers as a Novel Therapeutic Approach in Resistant Cancer Therapy: An In Vitro and In Vivo Study in Lung Resistant Tumor” (International Journal of Molecular Sciences, 2020).

Tests used:
P-gp = tested on: P-gp; design: method as in PMID 24106081; conditions: MCF7 cell line; read-out: EC50, P-gp inhibition; cited from earlier work
MCF7 cell line = tested on: MCF7 cell line; design: method as in PMID 24106081; conditions: MCF7 cells; read-out: EC50, cytotoxicity in MCF7; cited from earlier work
A549/DX = experiment: Intracellular total ROS production in A549/DX (DCFDA-AM); assay type: cell-based, human; conditions: for Intracellular ROS production with cis-Pt: 10 μM + 25 μM cis-Pt; for Intracellular ROS production with cis-Pt / Intracellular ROS production, compound alone: 24 h; for Intracellular ROS production, compound alone / Intracellular ROS production with ROS scavenger Tempol: 10 μM; for Intracellular ROS production with ROS scavenger Tempol: with 10 mM Tempol
Excerpt: One of the possible reasons of this sensitization is the ability of these three compounds to inhibit the efflux of cis-Pt, which is MRP1-mediated. […] This could be associated with a second reason, considering one of the putative mechanisms of CS consisting of an increased production of ROS, capable of triggering the apoptosis of MDR cells. To investigate whether this mechanism is involved in the sensitizing effects elicited by F397, F400, and F421, we measured the intracellular ROS production in A549/DX after 24 h treatment with these three molecules at 10 μM, with and without 25 μM cis-Pt (Figure 5A). […] Moreover, to verify whether the increase in ROS induced the reduction in cell viability elicited by the compounds, we evaluated the antiproliferative effect at 72 h of these three sensitizers alone and with 25 μM cis-Pt, adding 10 mM Tempol at time zero and after 48 h from the incubation.
Here, 1 × 10^6 whole cells were re-suspended in a final volume of 0.5 mL PBS and incubated for 30 min at 37 °C with 5 μM of the fluorescent probe 5-(and-6)-chloromethyl-2’,7’-dichlorodihydro-fluorescein diacetate-acetoxymethyl ester (DCFDA-AM, Sigma Chemicals Co.) in the dark. Cells were then centrifuged at 13,000× g at 37 °C and re-suspended in 0.5 mL PBS. The fluorescence of each sample, considered as the index of ROS levels, was read at 492 (λ excitation) and 517 nm (λ emission) using a Synergy HT Multi-Mode Microplate Reader (Bio-Tek Instruments). The results were expressed as nmol total ROS/mg cell proteins. A preliminary titration curve was set up by incubating the cells for 1 h with the cells treated with serial dilutions (10–0.01 nM) of the pro-oxidant agent menadione.

A549/DX cells = experiment: In vivo tumor growth of A549/DX xenografts; design: species or system nu/nu BALB/C mice; conditions: for Tumor growth, single agent: A549/DX xenografts in nu/nu BALB/C mice, 750 nmoles i.p. on day 1, 7, 14; for Tumor growth, co-administration with MK571 / Tumor growth, co-administration with cis-Pt: A549/DX xenografts; for Tumor growth, co-administration with MK571: 750 nmoles + 3 mg/kg MK571 i.p.; for Tumor growth, co-administration with cis-Pt: 750 nmoles + 50 mg/kg cis-Pt i.p.
Description: In order to translate in vivo the capability of F397, F400, and F421 to act as “sensitizers”, A549/DX cells were implanted in immune-deficient BALB/C mice, and once the tumor reached the volume of 50 mm^3, the mice were randomized and treated […] with the vehicle (saline solution) and/or cis-Pt.
(§1) Here, 1 × 10^6 A549/DX cells were mixed with 100 μl Matrigel implanted in 6-week-old female nu/nu BALB/C mice (Charles River Laboratories Italia, Calco, Italy), housed (5 per cage) under 12 h light/dark cycle, with food and drinking provided ad libitum. Tumor growth was measured daily by caliper, according to the equation (LxW2)/2, where L = tumor length and W = tumor width. When the tumor reached the volume of 50 mm^3, mice (n = 8/group) were randomized and treated as reported in the following groups, treated on day 1, 7, and 14 after randomization: (1) vehicle group (ctrl), treated intraperitoneally (i.p.) with 100 µL saline solution; (2) cis-Pt group, treated i.p. with 50 mg/kg cis-Pt, dissolved in 100 µL water/10% DMSO solution, according to Kopecka et al., 2015 [53]; (3) F397 group, treated i.p. with 750 nmoles of the compound, dissolved in 100 µL water/10% DMSO solution, corresponding to the maximum tolerated dose (not shown and Table 2); (4) F421 group, treated i.p. with 750 nmoles of the compound, dissolved in 100 µL water/10% DMSO solution i.p, corresponding to the maximum tolerated dose (not shown and Table 2); (5) cis-Pt/F397 group, treated i.p. with 50 mg/kg Cis-Pt and 750 nmoles of F397; (6) cis-Pt/F421 group, treated i.p. with 50 mg/kg cis-Pt and 750 nmoles of F421; (7) MK571 group, treated i.p. with 3 mg/kg MK571 dissolved in 100 µL water/10% DMSO solution, according to Jones et al., 1989 [56]; (8) MK571/F397 group, treated i.p. with 3 mg/kg MK571 and 750 nmoles of F397; (9) MK571/F421 group, treated i.p. with 3 mg/kg MK571 and 750 nmoles of F421. Tumor volumes were monitored daily. Animals were euthanized at day 21 after randomization with zolazepam (0.2 mL/kg) and xylazine (16 mg/kg). Lactate dehydrogenase (LDH), aspartate aminotransferase (AST), alanine aminotransferase (ALT), alkaline phosphatase (AP), creatinine, and creatine phosphokinase (CPK) were measured on blood samples collected immediately after euthanasia, using commercially available kits from Beckman Coulter Inc. (Beckman Coulter, Miami, FL, USA).

[1] = Hemato-chemical parameters and tolerability in treated mice; assay type: in vivo; design: Creatinine: unit not given here; conditions: for ALT / AP / AST / CPK / Creatinine / LDH: blood after euthanasia day 21, i.p. treatment day 1, 7, 14, means ± SD, n = 8; for Maximum tolerated dose: i.p., in 100 µL water/10% DMSO, mice (not shown)
Description: as §1

MCF7/DX = tested on: MCF7/DX; design: method as in PMID 24106081; conditions: resistant MCF7/DX overexpressing P-gp; read-out: EC50, cytotoxic activity in MCF7/DX; cited from earlier work
in vitro = assay type: cell-based; conditions: human
Excerpt: Nevertheless, the involvement of a sigma-2 receptor-mediated effect was ruled out by the detection of a low density of sigma-2 receptors in A549 cells (data not shown). […].

[2] = Solubility in solvents suitable for in vivo studies; assay type: physicochemical
Excerpt: Of note, the dose of F397 and F421 effective as an anti-tumor agent in vivo was lower than the dosage effective as an anti-proliferative agent in vitro. One possible reason could be that part of the anti-tumor effect of the compounds was mediated by their activity on the tumor microenvironment, not necessarily only on tumor cells. This aspect cannot be evaluated in the viability assays performed in vitro and could lead to an underestimation of the compounds’ potency. Further, the repeated administration of F397 and F421 followed in vivo instead of the single dosage used in vitro can be an additional explanation. […] This could also be the case of F397 and F421 against A549/DX tumors. […] It is also worth noting that the treatment was not toxic for liver, heart, and kidney compared with the control, as shown from the hemato-chemical parameters of the animals (Table 2).

Compound | EC50 (P-gp) | EC50 (MCF7 cell line) | Intracellular ROS production with cis-Pt (A549/DX) | Intracellular ROS production, compound alone (A549/DX) | Intracellular ROS production with ROS scavenger Tempol (A549/DX) | Tumor growth, single agent (A549/DX cells) | Tumor growth, co-administration with MK571 (A549/DX cells) | Tumor growth, co-administration with cis-Pt (A549/DX cells) | ALT [1] | AP [1] | AST [1] | CPK [1] | Creatinine [1] | LDH [1] | Maximum tolerated dose [1] | EC50 (MCF7/DX) | EC50 (in vitro) | Solubility in solvents suitable for in vivo studies [2]
COc1cc2c(cc1OC)CN(CCCCc1cn(-c3ccc(F)cc3)c3ccccc13)CC2 [F397, 6,7-dimethoxy-2-{4-[1-(4-fluorophenyl)-1H-indol-3-yl]butyl}-1,2,3,4-tetrahydroisoquinoline] | 0.21 µM | 17.8 µM | further enhanced when they were co-administrated with the antineoplastic drug | increased the amount of intracellular ROS | reverted by the ROS scavenger Tempol | low growth reduction | abated the cytotoxic effect | greatly reduced tumor growth | 37 ± 108 U/L | 112 ± 32 U/L | 81 ± 24 U/L | 324 ± 72 U/L | 0.043 ± 0.009 | 6729 ± 492 U/L | 750 nmol | 21.8 µM | – | –
COc1ccc(CNCCCCc2cn(-c3ccc(F)cc3)c3ccccc23)cc1OC [F421, N-{4-[1-(4-fluorophenyl)-1H-indol-3-yl]butyl}-3,4-dimethoxybenzylamine] | – | – | further enhanced when they were co-administrated with the antineoplastic drug | increased the amount of intracellular ROS | reverted by the ROS scavenger Tempol | low growth reduction | abated the cytotoxic effect | greatly reduced tumor growth | 33 ± 13 U/L | 143 ± 34 U/L | 82 ± 37 U/L | 321 ± 72 U/L | 0.045 ± 0.011 | 7182 ± 892 U/L | 750 nmol | – | > 100 µM | –
COc1cc2c(cc1OC)CN(C(=O)CCC1CCCc3c(OC)cccc31)CC2 (centres unmarked) [F400, 6,7-dimethoxy-2-[3-(5-methoxy-1,2,3,4-tetrahydronaphthalen-1-yl)propionyl]-1,2,3,4 tetrahydroisoquinoline] | – | – | further enhanced when they were co-administrated with the antineoplastic drug | increased the amount of intracellular ROS | reverted by the ROS scavenger Tempol | – | – | – | – | – | – | – | – | – | – | – | > 100 µM | could not be dissolved in solvents suitable for in vivo studies
